Test results as given in patent US20200247761A1, “SULFONAMIDE OR AMIDE COMPOUNDS, COMPOSITIONS AND METHODS FOR THE PROPHYLAXIS AND/OR TREATMENT OF AUTOIMMUNE, INFLAMMATION OR INFECTION RELATED DISORDERS” (TAIWANJ PHARMACEUTICALS CO., LTD, priority 2017, published 2020).
Where two headings read alike, the source gives them in different places.

Tests used:
Format in all cases: cell-based
[1] = target: T1, Toll-like receptor 4 (TLR4) (Homo sapiens, UniProt O00206); assay: TLR4 activity: NF-κB-inducible SEAP reporter in LPS-stimulated TLR4-expressing HEK293 cells; conditions: for inhibition at 10 µM: Test Con. 10 μM, LPS 10 ng/ml, 16-24 hours, HEK293 cells expressing TLR4, read-out: TLR-4 inhibition (%) mean; for activity towards TLR-4 (in words): summary of Table 1 (10, 20 or 100 μM)
T1 construct: expressed in transfected cells; host or cells: HEK293 cells engineered to express TLR4
T1 sequence (O00206 24-839, species assumed): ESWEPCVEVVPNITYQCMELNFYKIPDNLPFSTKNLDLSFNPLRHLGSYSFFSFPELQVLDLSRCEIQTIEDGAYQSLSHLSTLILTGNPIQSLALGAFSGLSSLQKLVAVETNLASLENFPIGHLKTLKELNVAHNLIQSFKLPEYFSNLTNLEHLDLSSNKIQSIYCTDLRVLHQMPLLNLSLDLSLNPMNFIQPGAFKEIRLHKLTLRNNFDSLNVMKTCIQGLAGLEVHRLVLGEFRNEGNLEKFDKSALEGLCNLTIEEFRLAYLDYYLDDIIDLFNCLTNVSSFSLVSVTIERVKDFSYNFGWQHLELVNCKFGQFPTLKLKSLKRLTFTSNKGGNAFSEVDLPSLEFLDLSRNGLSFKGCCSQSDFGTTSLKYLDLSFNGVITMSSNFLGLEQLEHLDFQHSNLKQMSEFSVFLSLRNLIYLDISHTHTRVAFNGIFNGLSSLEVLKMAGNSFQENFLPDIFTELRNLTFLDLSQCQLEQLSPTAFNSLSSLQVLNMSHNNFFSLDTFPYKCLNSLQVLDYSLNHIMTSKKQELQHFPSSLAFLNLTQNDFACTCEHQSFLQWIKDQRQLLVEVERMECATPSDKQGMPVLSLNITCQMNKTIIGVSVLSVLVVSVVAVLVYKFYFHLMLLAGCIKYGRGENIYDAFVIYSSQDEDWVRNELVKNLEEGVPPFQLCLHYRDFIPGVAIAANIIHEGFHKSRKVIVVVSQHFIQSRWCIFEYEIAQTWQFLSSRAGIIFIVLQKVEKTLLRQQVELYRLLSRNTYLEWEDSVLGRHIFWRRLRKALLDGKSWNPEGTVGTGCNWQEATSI
T1 sequence (Q9Y6Y9 17-160 partner limits assumed, species assumed): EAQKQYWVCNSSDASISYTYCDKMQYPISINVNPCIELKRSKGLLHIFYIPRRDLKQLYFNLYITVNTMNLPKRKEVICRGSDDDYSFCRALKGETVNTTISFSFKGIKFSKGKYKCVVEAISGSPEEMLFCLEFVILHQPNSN
Protocol: Stimulation of the Toll-like receptor 4 (TLR4) was determined by assessing activation of the transcription factor NF-κB in HEK293 cells that were engineered to express TLR4. Assessment of TLR4 stimulation was based on the use of an NE-κB-inducible secreted alkaline phosphatase (SEAP) reporter system in which the SEAP reporter was under the control of a promoter inducible by NF-κB. Thus, the degree of activation of TLR4 can be indirectly quantified spectrophotometrically by measuring the amount of the SEAP reporter that is produced.
The TLR4-expressing cells were plated in HEK-Blue Detection (Invivogen, San Diego, Calif.) medium in a 96-well plate (25,000-50,000 cells/well). The cells were stimulated with lipopolysaccharides (LPS) alone or in combination with the compound of Example 1. Cell culture without LPS and the compound of Example 1 was defined as baseline control. To test whether the compound of Example 1 could block that activation of the TLR4, the cells were treated with the designated compound (10, 20 or 100 μM) and LPS (final conc. 10 ng/ml/well). After an incubation period (16-24 hours) at 37° C. in a CO2 incubator, the signals of individual samples in 96-well plates were detected at O.D.650 nm with a Molecular Devices SpectraMax i3 Imaging Cytometer. The TLR4 activity was expressed in percentage of LPS alone-stimulated cells minus baseline control.

HEK293 cells = assay: Cell viability (MTT) of the TLR4-expressing HEK293 cells; conditions: Test Con. 10 μM, percentage of viable LPS-stimulated cells
Protocol: (§1) RAW264.7 cells (1.6×10^5 cells/well) or HEK 293 cells (2.5-5.0×10^4 cells/well) were seeded in 96-well plate overnight and treated with different compounds for 16-24 hours. Cells' growth were determined by MTT-based colorimetric assays. Viability of the test cells treated with vehicle (0.5% DMSO) only was defined as 100% viable. Survival of cells after treatment with DETDs was calculated using the following formula: viable cell number (%)=OD570 (treated cell culture)/OD570 (vehicle control)×100.
(§2) The cell viability assay was performed by the MTT method. Cells were incubated with 45 μl of 5 mg/ml MTT for 1 hour at 37° C., and 150 μl of DMSO was added at the end of culture to dissolve the crystals. The signals of individual samples in 96-well plates were detected at O.D.570 nm with a Molecular Devices SpectraMax i3 Imaging Cytometer. Cell viability was expressed in percentage of viable LPS-stimulated cells.

[2] = system: mTNF-α secretion from LPS-stimulated RAW264.7 monocytes; assay: LPS induced mTNF-α release from RAW264.7 cells (ELISA); conditions: Mus musculus
Protocol: To confirm whether the inhibitory effect of the selected compounds of example 2.1 (i.e., Compounds 12, 15, 19, 20, 22, 24, 28, 30, 32, 34, 36, 38, 40, 42, 44, 45, 49, 50, 52 and 70) translates to anti-inflammation, they were further tested to see if any of them may suppress mTNF-α secretion from lipopolysaccharide (LPS)-stimulated RAW264.7 monocytes.
To this purpose, RAW264.7 cells were seeded at 1.6×10^5 cells/well into 96-well culture plates. Test compounds (i.e., Compounds 12, 15, 19, 20, 22, 24, 28, 30, 32, 34, 36, 38, 40, 42, 44, 45, 49, 50, 52 and 70, respectively at 10 μM) were added into the culture plates in triplicate and co-cultured at 37° C. in 5% CO2 for 30 minutes. LPS (final conc. 10 ng/ml/well) was then added into the culture plates and the cells were incubated for another 4 hours. At the end of culture, the cultured media were harvested for mTNF-α quantification by ELISA with commercial assay kits (R&D Systems, Minneapolis, Minn.) following the manufacturer's protocol. Signals of the individual samples in 96-well plates were detected at O.D.450 nm/570 nm with a Molecular Devices SpectraMax i3 Imaging Cytometer. The mTNF-α activity was expressed in percentage of viable LPS-stimulated cells without test compound treatment.

RAW264.7 cells = assay: Cell viability (MTT) of RAW264.7 cells; conditions: for toxic activity toward RAW264.7 cells (in words): Table 2, 10 μM; for Cell Viability (%) mean: Test Con. 10 μM, MTT, RAW264.7 cells, percentage of viable LPS-stimulated cells
Protocol: as §1
as §2, with “method, in which cells” for “method. Cells”

[3] = RAW264.7, Table 2, 10 μM, read-out: inhibition of LPS induced mTNF-α release from RAW264.7 cells
[4] = Test Con. 10 μM, LPS 10 ng/ml, 4 hours, RAW264.7 cells, read-out: mTNF-α inhibition (%) mean

Row | inhibition at 10 µM [1] [%] | activity towards TLR-4 (in words) [1] | Structure (SMILES) | Cell Viability (%) mean (HEK293 cells) [%] | inhibition at 10 µM [2, 3] [%] | inhibition at 10 µM [2, 4] [%] | toxic activity toward RAW264.7 cells (in words) (RAW264.7 cells) | Cell Viability (%) mean (RAW264.7 cells) [%]
1 | 76 | moderate inhibitory activity | C=CC(=O)N(c1ccc(F)cc1Cl)S(=O)(=O)N1CCCC1 [Compound 50] | 85.1 | 85 to 100 | 86.1 | negligible to no toxic activity | 97.6
2 | 100 | strong antagonist | C=CC(=O)N(c1ccc(F)cc1Cl)S(=O)(=O)c1c(C)noc1C [Compound 34] | 63.0 | 85 to 100 | 98.5 |  | 53.9
3 | 100 | strong antagonist | C=CC(=O)N(C1CC1)S(=O)(=O)c1ccc(F)cc1Cl [Compound 40] | 85.5 | 85 to 100 | 99.7 | negligible to no toxic activity | 93.5

The next lines start with the compound.

Row | Structure (SMILES) | inhibition at 10 µM [1] [%] | activity towards TLR-4 (in words) [1] | Cell Viability (%) mean (HEK293 cells) [%] | inhibition at 10 µM [2, 3] [%] | inhibition at 10 µM [2, 4] [%] | toxic activity toward RAW264.7 cells (in words) (RAW264.7 cells) | Cell Viability (%) mean (RAW264.7 cells) [%]
4 | C=CC(=O)c1ccccc1S(=O)(=O)N(C)c1ccccc1 [Compound 70] | 100 | strong antagonist | 79.7 | 85 to 100 | 100 |  | 69.6
5 | C=CC(=O)Nc1ccccc1S(=O)(=O)Nc1ccc(F)cc1Cl [Compound 44] | 100 | strong antagonist | 81.4 | 85 to 100 | 94.1 | negligible to no toxic activity | 96.1
6 | C=CC(=O)N(c1ccc(F)cc1Cl)S(=O)(=O)c1ccccc1S(C)(=O)=O [Compound 32] | 100 | strong antagonist | 84.5 | 85 to 100 | 97.5 |  | 48.3
